{
  "source": "patent US8883192B2",
  "about": "“Compositions and methods for reducing or preventing obesity” (Nestec S.A., priority 2004, dated 2014)",
  "key": {"[1]": {"test_system": "rats after surgically-induced menopause", "settings": "cited from earlier work"}, "[2]": {"test_system": "rat adipocytes", "settings": "cited from earlier work"}, "[3]": {"experiment": "Metabolic profile of isoflavones and their metabolites in blood of dogs", "format": "in vivo, dog", "settings": "blood of dogs tested; FIG. 8B", "source_text": "The following measurements were made for each animal: • Body weight, body condition score, DEXA. • Plasma concentrations of isoflavones and their metabolites • Blood leptin • Intravenous glucose tolerance test • Oxidative stress measurement (isoprostanes: 8-iso-prostaglandin F2α, formed from arachidonic acid in phospholipids by free radical reaction): 3-month samples\nThe metabolic profiles of isoflavones and their metabolites in the blood of humans (FIG. 8A) and dogs (FIG. 8B) were compared."}, "[4]": {"settings": "cited from earlier work"}, "[5]": {"test_system": "estrogen receptor (ER)", "settings": "compared with other isoflavones; cited from earlier work"}, "[6]": {"test_system": "topoisomerase II", "settings": "cited from earlier work"}, "[7]": {"test_system": "tyrosine protein kinase", "settings": "cited from earlier work"}, "[8]": {"test_system": "angiogenesis", "settings": "cited from earlier work"}},
  "data": [
    {"smiles": "O=c1c(-c2ccc(O)cc2)coc2cc(O)ccc12", "note": "[Daidzein, daidzein]", "values": [
      {"measurement": "body fat accumulation", "setting": "[1]", "value": "suppressing body fat accumulation"},
      {"measurement": "basal and epinephrine-stimulated lipolysis", "setting": "[2]", "value": "enhanced"},
      {"measurement": "basal and insulin-stimulated lipogenesis", "setting": "[2]", "value": "inhibited"}
    ]},
    {"smiles": "COc1cc2c(=O)c(-c3ccc(O)cc3)coc2cc1O", "note": "[glycitein]", "values": [
      {"measurement": "body fat accumulation", "setting": "[1]", "value": "suppressing body fat accumulation"}
    ]},
    {"smiles": "Oc1ccc([C@H]2COc3cc(O)ccc3C2)cc1", "note": "[Equol]", "values": [
      {"measurement": "form of isoflavone metabolite in the blood", "setting": "[3]", "value": "predominant form of isoflavone metabolite"},
      {"measurement": "antioxidant activity", "setting": "[4]; compared with all the isoflavones tested, Setchell 2002", "value": "greatest antioxidant activity of all the isoflavones tested"},
      {"measurement": "induction of estrogen receptor (ER)-responsive transcription (estrogenic activity)", "setting": "[5]", "value": "more strongly than any other isoflavones"}
    ]},
    {"smiles": "O=C1c2ccc(O)cc2OCC1c1ccc(O)cc1", "note": "(stereo not shown) [dihydrodaidzein]", "values": [
      {"measurement": "free radical scavenging activities", "setting": "[4]; Jiang 2003", "value": "appears to have free radical scavenging activities"}
    ]},
    {"smiles": "O=c1c(-c2ccc(O)cc2)coc2cc(O)cc(O)c12", "note": "[genistein]", "values": [
      {"measurement": "inhibition of topoisomerase II", "setting": "[6]", "value": "inhibitor"},
      {"measurement": "inhibition of tyrosine protein kinase", "setting": "[7]", "value": "inhibits"},
      {"measurement": "inhibition of angiogenesis", "setting": "[8]", "value": "inhibits angiogenesis"},
      {"measurement": "basal and epinephrine-stimulated lipolysis", "setting": "[2]", "value": "enhanced"},
      {"measurement": "basal and insulin-stimulated lipogenesis", "setting": "[2]", "value": "inhibited"}
    ]}
  ]
}
